The record followed here is patent US10829458B2 (Araxes Pharma LLC, priority 2015, dated 2020).

In the assay the target is T1, KRAS G12C 1-169, his-tagged protein, GDP-loaded (Homo sapiens, UniProt P01116, G12C).
T1 construct: KRAS G12C 1-169, his-tagged protein, GDP-loaded
Briefly: Biochemical assay: covalent modification of KRAS G12C measured by mass spectrometry (RapidFire/TOF or Q-Exactive). Conditions: covalent binding to KRAS G12C. An outline of the steps: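 Covalent adduct formation read by intact-mass spectrometry (TOF or Q Exactive Plus, charge envelopes deconvoluted into modified and unmodified species) after formic acid quench. Reactions contained 2 μM GDP-bound KRAS G12C 1-169 (his-tag) in Hepes/NaCl/MgCl2 buffer plus 10, 30 or 100 μM final compound, held 30 min, 2 h or 24 h at room temperature.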

For `C=CC(=O)N1C[C@H](C)N(c2ncnc3c(F)c(-c4c(F)cccc4OC)c(Cl)cc23)C[C@H]1C` [III-2, 1-((2R,5S)-4-(6-chloro-8-fluoro-7-(2-fluoro-6-methoxy-phenyl)quinazolin-4-yl)-2,5-dimethyl-piperazin-1-yl)prop-2-en-1-one], the Binding % result (compounds of structure (III)) is “+ (+ indicates binding activity up to 50%)”. For `C=CC(=O)N1CCN(c2nc(OCc3cccnn3)nc3c(F)c(-c4c(O)cccc4F)c(Cl)cc23)CC1` [Example I-119, 1-(4-(6-chloro-8-fluoro-7-(2-fluoro-6-hydroxyphenyl)-2-(pyridazin-3-ylmethoxy)quinazolin-4-yl)piperazin-1-yl) prop-2-en-1-one], the Binding % result (compounds of structure (I)) is “+ (+ indicates binding activity up to 50%)”. For `C=CC(=O)N1CCN(c2nc(NC3CCCN(C4CC4)C3)nc3c(F)c(-c4c(O)cccc4F)c(Cl)cc23)CC1` (stereo not drawn) [Example I-120, 1-(4-(6-chloro-2-(1-cyclopropyl-piperidin-3-ylamino)-8-fluoro-7-(2-fluoro-6-hydroxyphenyl)quinazolin-4-yl)piperazin-1-yl) prop-2-en-1-one], the Binding % entry (compounds of structure (I)) is “++ (++ indicates binding activity from 50 to 90%)”. With `C=CC(=O)N1CCN(c2nc(OC3CN(C4CCOCC4)C3)nc3c(F)c(-c4c(O)cccc4F)c(Cl)cc23)CC1` [Example I-186, 1-(4-(6-chloro-8-fluoro-7-(2-fluoro-6-hydroxyphenyl)-2-((1-(tetrahydro-2H-pyran-4-yl)azetidin-3-yl)oxy)quinazolin-4-yl)piperazin-1-yl) prop-2-en-1-one], the Binding % entry (compounds of structure (I)) is “++ (++ indicates binding activity from 50 to 90%)”. Regarding `C=CC(=O)N1CCN(c2ncnc3c(F)c(-c4c(F)cccc4OC)c(Cl)cc23)[C@H](C)C1` [III-13, 1-((3R)-4-(6-chloro-8-fluoro-7-(2-fluoro-6-methoxy-phenyl)quinazolin-4-yl)-3-methyl-piperazin-1-yl)prop-2-en-1-one], the Binding % result (compounds of structure (III)) is “+ (+ indicates binding activity up to 50%)”.

Regarding `C=CC(=O)N1CCN(c2nc(OCCc3ccccn3)nc3c(F)c(-c4cc(O)cc5ccccc45)c(Cl)cc23)CC1` [Example I-44, 1-(4-(6-chloro-8-fluoro-7-(3-hydroxy-naphthalen-1-yl)-2-(2-(pyridin-2-yl)ethoxy)quinazolin-4-yl)piperazin-1-yl) prop-2-en-1-one], the Binding % entry (compounds of structure (I)) was “+++ (+++ indicates binding activity greater than 90%)”. On the same count and under the same terms, the result for `C=CC(=O)N1CCN(c2nc(OCCc3ncccn3)nc3c(F)c(-c4c(O)cccc4F)c(Cl)cc23)CC1` [Example I-140, 1-(4-(6-chloro-8-fluoro-7-(2-fluoro-6-hydroxyphenyl)-2-(2-(pyrimidin-2-yl)ethoxy)quinazolin-4-yl)piperazin-1-yl) prop-2-en-1-one] reads “+++ (+++ indicates binding activity greater than 90%)”; that for `C=CC(=O)N1CCN(c2nc(CCNc3ncccn3)nc3c(F)c(-c4c(O)cccc4F)c(Cl)cc23)CC1` [Example I-135, 1-(4-(6-chloro-8-fluoro-7-(2-fluoro-6-hydroxyphenyl)-2-(2-(pyrimidin-2-ylamino)ethyl)quinazolin-4-yl)piperazin-1-yl) prop-2-en-1-one], “+++ (+++ indicates binding activity greater than 90%)”; that for `C=CC(=O)N1CCN(c2nc(C(=O)N3CCOCC3)nc3c(F)c(-c4c(O)cccc4F)c(Cl)cc23)CC1` [Example I-49, 1-(4-(6-chloro-8-fluoro-7-(2-fluoro-6-hydroxyphenyl)-2-(morpholine-4-carbonyl)quinazolin-4-yl)piperazin-1-yl) prop-2-en-1-one], “+++ (+++ indicates binding activity greater than 90%)”. With `C=CC(=O)N1CCN(c2nc(OCCNP(C)(C)=O)nc3c(F)c(-c4c(O)cccc4F)c(Cl)cc23)CC1` [Example I-207, N-(2-(4-(4-acryloyl-piperazin-1-yl)-6-chloro-8-fluoro-7-(2-fluoro-6-hydroxyphenyl)quinazolin-2-yloxy)ethyl)-P,P-dimethyl-phosphinic amide], the Binding % result (compounds of structure (I)) is “++ (++ indicates binding activity from 50 to 90%)”. On the same count and under the same terms, the result for `C=CC(=O)N1CCN(c2nc(OCCN3CCCC3=O)nc3c(F)c(-c4c(O)cccc4F)c(Cl)cc23)CC1` [Example I-16, 1-(2-(4-(4-acryloyl-piperazin-1-yl)-6-chloro-8-fluoro-7-(2-fluoro-6-hydroxyphenyl)quinazolin-2-yloxy)ethyl) pyrrolidin-2-one] reads “+++ (+++ indicates binding activity greater than 90%)”. For the compound `C=CC(=O)N1CCN(c2nc(OCCC3CCN(C(C)C)CC3)nc3c(F)c(-c4c(O)cccc4F)c(Cl)cc23)CC1` [Example I-180, 1-(4-(6-chloro-8-fluoro-7-(2-fluoro-6-hydroxyphenyl)-2-(2-(1-isopropyl-piperidin-4-yl)ethoxy)quinazolin-4-yl)piperazin-1-yl) prop-2-en-1-one], the Binding % result (compounds of structure (I)) is on record as “+++ (+++ indicates binding activity greater than 90%)”. Regarding `C=CC(=O)N1C[C@@H](C)N(c2ncnc3c(F)c(-c4c(C)ccc5[nH]ncc45)c(Cl)cc23)[C@@H](C)C1` [III-40, 1-((3S,5R)-4-(6-chloro-8-fluoro-7-(5-methyl-1H-indazol-4-yl)quinazolin-4-yl)-3,5-dimethyl-piperazin-1-yl)prop-2-en-1-one], the Binding % entry (compounds of structure (III)) was “++ (++ indicates activity from 50% to 90%)”. Consider `C=CC(=O)N1CCN(c2nc(N3CC(N4CCC(F)(F)CC4)C3)nc3c(F)c(-c4c(O)cccc4F)c(Cl)cc23)CC1` [Example I-23, 1-(4-(6-chloro-2-(3-(4,4-difluoro-piperidin-1-yl)azetidin-1-yl)-8-fluoro-7-(2-fluoro-6-hydroxyphenyl)quinazolin-4-yl)piperazin-1-yl) prop-2-en-1-one], for which the Binding % result (compounds of structure (I)) is listed as “++ (++ indicates binding activity from 50 to 90%)”.

As to `C=CC(=O)N1CC2(CCN(c3ncnc4c(F)c(-c5c(O)cccc5F)c(Cl)cc34)C2)C1` [II-4, 1-(6-(6-chloro-8-fluoro-7-(2-fluoro-6-hydroxyphenyl)quinazolin-4-yl)-2,6-diazaspiro[3.4]octan-2-yl)prop-2-en-1-one], the Binding % entry (compounds of structure (II)) is on record as “+ (+ indicates binding activity up to 50%)”. On to `C=CC(=O)N1CCN(c2nc(OCCN3CCC(F)(F)C3)nc3c(F)c(-c4c(O)cccc4F)c(Cl)cc23)CC1` [Example I-30, 1-(4-(6-chloro-2-(2-(3,3-difluoro-pyrrolidin-1-yl)ethoxy)-8-fluoro-7-(2-fluoro-6-hydroxyphenyl)quinazolin-4-yl)piperazin-1-yl) prop-2-en-1-one], for which the Binding % result (compounds of structure (I)) is “+++ (+++ indicates binding activity greater than 90%)”.

Turning to `C=CC(=O)N1CCN(c2nc(OCCN3CCC(F)(F)C3)nc3c(F)c(-c4c(C)ccc5[nH]ncc45)c(Cl)cc23)CC1` [Example I-146, 1-(4-(6-chloro-2-(2-(3,3-difluoro-pyrrolidin-1-yl)ethoxy)-8-fluoro-7-(5-methyl-1H-indazol-4-yl)quinazolin-4-yl)piperazin-1-yl) prop-2-en-1-one], the Binding % result (compounds of structure (I)) was “+++ (+++ indicates binding activity greater than 90%)”. The same measure, in the same setting: the result for `C=CC(=O)N1CCN(c2nc(NC3CCN(C4CC4)CC3)nc3c(F)c(-c4cc(O)cc5ccccc45)c(Cl)cc23)CC1` [Example I-75, 1-(4-(6-chloro-2-(1-cyclo-propylpiperidin-4-ylamino)-8-fluoro-7-(3-hydroxy-naphthalen-1-yl)quinazolin-4-yl)piperazin-1-yl)prop-2-en-1-one] reads “+++ (+++ indicates binding activity greater than 90%)”.
